Patent publication US20120101099A1, “HISTONE DEACETYLASE INHIBITORS” (ANTHEM BIOSCIENCES PRIVATE LIMITED, priority 2009, published 2012)
Structures can show the parent of a compound that is named as a salt. Where two headings read alike, the source gives them in different places.

Assays:
[1] = test system: human HDAC (Hela cells nuclear extract); test: HDAC activity screening, Hela nuclear extract, Boc-Lys(Ac)-AMC substrate; type: biochemical; details: for HDAC % Inhibition (1 μM): 1 μM compound; for HDAC % Inhibition (10 μM): 10 μM compound
Procedure: To study the human HDAC inhibition the in-house 96 well plate assay have been established using fluorescent substrate (Boc-Lys (Ac)-AMC Substrate). Hela cells nuclear extract have been used as enzyme source.
Assay was performed in 96-well black microplate and total volume of the assay was 100 μL. Hela nuclear extract was diluted HDAC assay buffer (final concentration of 3.0 μg/mL). Enzyme mixture was made of 10 μL of diluted enzyme and 30 μL of HDAC buffer. 40 μl of enzyme mixture followed by 10 μL of test compound (final concentration from 0.01 to 10 μM) or vehicle (control) was added to each well. The plate was pre-incubated at 37° C. for 10 minutes. The HDAC reaction was started by adding 50 μl of HDAC substrate Boc-Lys (Ac)-AMC (Anaspec, Inc Fremont, Calif., USA). The plate was incubated at 37° C. for 45 minutes. The reaction was stopped by adding 50 μL of Trypsin stop solution and plate further incubated at 37° C. for 15 minutes. Measuring the fluorescence at excitation wavelength of 360 nm and emission wavelength of 460 nm monitored the release of AMC. Buffer alone and substrate alone served as blank.

CYP 3A4 = molecular target: T1, CYP 3A4 (Homo sapiens, UniProt P08684); test: Cytochrome-P450 isoforms liability determination; type: in vitro ADME; details: fluorescence based kit
T1 construct: purchased
Procedure: To determine the test compound liability towards Human cytochrome 450 (hCYP450) Isoforms fluorescence based screening kits.
Brief procedure: 2× test compounds were prepared by dilution with deionized water. A serial dilution of the test compound was done. 2× solution of known inhibitor were used as a positive control. 40 μL of the 2× solution that is prepared was added to the desired wells. Two replicates were included for every compound. 50 μL of the Master premix (premix of CYP450 Baclosomes, reagents and regenerating system) was dispensed into each well. The plate was incubated for 20 min at room temperature to allow the compounds to interact with the CYP450enzymes. The reaction was started by adding 10 μL of the substrate and NADP^+ mixture. The plate was incubated for the desired amount of time, and then 10 μL of stop reagent was added to each well to quench the reaction. The fluorescence was measured in the fluorescent plate reader at excitation and emission wavelengths as recommended, depending on the substrate used.

hERG = molecular target: T2, hERG (Homo sapiens, UniProt Q12809); test: hERG competitive binding assay (3H-Astemizole); details: hERG-CHO membrane, 1 nM 3H-Astemizole
T2 construct: expressed in transfected cells; host or cells: CHO cells (membrane preparation)
Procedure: The study was carried out to find our cardio safety of the test compounds. Brief procedure: The hERG competitive binding assay performed at a ligand concentration of 1 nM. The test compounds were dissolved in desired volume of 100% DMSO (stock conc. 50 mM). […] The test compound and membrane was pre-incubated for 10 Min at 30° C. 10 μL of ^3H-Astemizole was then added (final concentration of 1 nM), mixed well and incubated additionally for 90 min at 30° C. with mild shaking. At the end of reaction, binding was terminated by rapid filtration onto GF/C glass fiber filter mats, presoaked in 0.3% polyethyleneimine, followed by rapid washing 10 times with ice-cold wash buffer. Captured radiolabel was detected using a liquid scintillation counter. The percent inhibition of the compounds was calculated compared to the vehicle control.

Caspase-3 = Caspase-3 activity in HT-29 cells; type: cell-based; details: Homo sapiens, 48 hours
Procedure: Caspase-3 activity was measured in HT-29 cells using Caspase-3 assay kit, (Sigma). HT-29 cells were seeded (10,000 cells/well) in a 96 well plate and incubated overnight. Cells were treated with several concentrations (30, 10, 3, 1, 0.3, 0.1, 0.03, 0.01 μM) of the compounds and incubated for 48 hours and the cells were lysed. Assay was carried out according to the manufacturer's protocol. The fluorescent substrate was added in to the cell lysate and the fluorescence was measured at λexi360 and λemi460.

PA-1 = test: Cell proliferation assay (MTT); type: cell-based; details: Homo sapiens
In short: (§1)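 MTT was added for 3 h, formazan dissolved in DMSO and A570 read. GI50 interpolated from dose-response curves of percentage growth relative to a T0 plate.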

NCI-H460 = test: Cell proliferation assay (MTT); type: cell-based; details: Homo sapiens
In short: as §1

NCI-H23 = test: Anti-proliferative activity (GI50); type: cell-based; details: Homo sapiens, Table 9, Lung
Procedure: (§2) Cells were seeded in a 96-well cell culture plates at a concentration of 10,000 cells per well and incubated at 37° C. in CO2 incubator.
(§3) Twenty-four hours later cells were treated with different concentrations (100, 10, 1, 0.1, and 0.01 μM) of compound dissolved in DMSO and incubated for 48 hours. For To measurement, 24 hours after seeding the cells, 20 μL of 3-(4.5-dimethyl-2- thiazolyl)-2,5-diphenyl-2H-tetrazolium (MTT) solution per well was added to the T0 plate and incubated for 3 hours at 37° C. in a CO2 incubator.
(§4) The plate containing cells and test compounds was treated similarly after 48 hours of incubation. After 3 hours of MTT addition, well contents were aspirated carefully followed by addition of 100 μL DMSO per well. Plates were agitated to ensure dissolution of the formazan crystals in DMSO and absorbance was read at 570 nm (A570). […] From the percentage growths a dose response curve was generated and GI50 values were interpolated from the growth curves.

Hela-229 = test: Anti-proliferative activity (GI50); type: cell-based; details: Homo sapiens, Table 9, Cervix
Procedure: as §2, §3, §4

786-O = test: Anti-proliferative activity (GI50); type: cell-based; details: Homo sapiens, 786-0; Table 9; Renal
Procedure: as §2, §3, §4

SK-OV-3 = test: Anti-proliferative activity (GI50); type: cell-based; details: Homo sapiens, Table 9, Ovary
Procedure: as §2, §3, §4

[2] = read-out: IC50 (50% HDAC inhibitory concentration), Table 2, Hela nuclear extract
[3] = Table 1, MTT, 48 hours, read-out: Cell growth inhibition (GI50 in μM) PA-1
[4] = Table 9, Ovary, read-out: Anti-proliferative activity (GI50) PA-1
[5] = Table 1, MTT, 48 hours, read-out: Cell growth inhibition (GI50 in μM) NCI H460
[6] = Table 9, Lung, read-out: Anti-proliferative activity (GI50) NCI-H460

T2 sequence (Q12809 whole entry): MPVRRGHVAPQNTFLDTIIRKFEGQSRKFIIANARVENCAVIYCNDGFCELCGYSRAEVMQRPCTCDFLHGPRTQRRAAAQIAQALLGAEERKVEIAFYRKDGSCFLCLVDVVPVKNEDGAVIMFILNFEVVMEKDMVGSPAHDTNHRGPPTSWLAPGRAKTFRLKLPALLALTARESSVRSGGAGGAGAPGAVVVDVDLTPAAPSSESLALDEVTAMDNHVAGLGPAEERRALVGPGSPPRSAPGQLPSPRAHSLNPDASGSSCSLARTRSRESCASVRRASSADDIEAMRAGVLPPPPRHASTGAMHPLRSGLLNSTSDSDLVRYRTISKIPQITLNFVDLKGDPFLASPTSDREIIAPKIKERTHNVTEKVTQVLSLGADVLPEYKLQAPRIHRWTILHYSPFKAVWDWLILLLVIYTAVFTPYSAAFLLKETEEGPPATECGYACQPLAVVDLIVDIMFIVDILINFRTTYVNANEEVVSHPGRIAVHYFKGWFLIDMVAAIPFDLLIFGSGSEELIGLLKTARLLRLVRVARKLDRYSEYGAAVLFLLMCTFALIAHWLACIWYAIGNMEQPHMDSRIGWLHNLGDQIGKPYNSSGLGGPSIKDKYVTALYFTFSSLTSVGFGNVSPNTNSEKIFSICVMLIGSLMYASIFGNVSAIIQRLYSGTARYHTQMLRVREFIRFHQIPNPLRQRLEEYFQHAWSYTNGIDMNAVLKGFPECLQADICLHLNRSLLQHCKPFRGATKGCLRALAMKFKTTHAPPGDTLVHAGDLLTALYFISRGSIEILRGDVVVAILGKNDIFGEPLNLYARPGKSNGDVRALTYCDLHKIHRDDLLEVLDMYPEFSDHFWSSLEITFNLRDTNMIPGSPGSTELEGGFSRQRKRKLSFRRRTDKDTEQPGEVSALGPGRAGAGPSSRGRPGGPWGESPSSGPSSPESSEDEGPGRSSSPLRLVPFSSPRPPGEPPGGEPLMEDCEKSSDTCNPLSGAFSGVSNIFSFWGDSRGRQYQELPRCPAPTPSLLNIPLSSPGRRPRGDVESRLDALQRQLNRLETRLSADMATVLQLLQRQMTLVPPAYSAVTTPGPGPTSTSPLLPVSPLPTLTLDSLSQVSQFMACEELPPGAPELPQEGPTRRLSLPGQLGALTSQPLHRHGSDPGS
T1 sequence (P08684 whole entry, canonical isoform): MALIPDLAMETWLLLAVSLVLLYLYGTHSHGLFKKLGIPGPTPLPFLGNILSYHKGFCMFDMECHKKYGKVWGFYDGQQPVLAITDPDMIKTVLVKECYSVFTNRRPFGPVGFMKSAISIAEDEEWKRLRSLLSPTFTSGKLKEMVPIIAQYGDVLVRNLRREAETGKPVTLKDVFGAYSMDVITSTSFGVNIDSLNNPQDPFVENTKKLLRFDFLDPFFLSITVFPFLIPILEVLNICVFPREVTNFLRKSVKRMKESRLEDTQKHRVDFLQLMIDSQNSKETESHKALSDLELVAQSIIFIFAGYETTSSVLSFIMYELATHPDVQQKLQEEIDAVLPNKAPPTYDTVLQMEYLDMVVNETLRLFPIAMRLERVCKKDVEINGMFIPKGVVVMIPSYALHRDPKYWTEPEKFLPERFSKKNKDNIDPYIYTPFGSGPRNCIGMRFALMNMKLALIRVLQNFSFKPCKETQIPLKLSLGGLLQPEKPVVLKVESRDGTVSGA

IC50 [1, 2] [nM] | IC50 (CYP 3A4) [µM] | EC50 (Caspase-3) [µM] | GI50 (NCI-H460; [6]) [µM] | GI50 (NCI-H23) [µM] | GI50 (Hela-229) [µM] | GI50 (786-O) [µM] | GI50 (SK-OV-3) [µM] | Compound | HDAC % Inhibition (1 μM) ([1]; Hela nuclear extract) [%] | HDAC % Inhibition (10 μM) ([1]; Hela nuclear extract) [%] | IC50 ([1]; Table 8, read-out: IC50 (nM) Hela nuclear extract) [nM] | IC50 (hERG) [µM] | GI50 (PA-1; [3]) [µM] | GI50 (PA-1; [4]) [µM] | GI50 (NCI-H460; [5]) [µM]
57 | 43.2 | 1.5 | 2.4 ± 0.85 | 2.3 ± 1.14 | 1.4 ± 0.26 | 2.5 ± 1.01 | 1.8 ± 0.2 | O=C(NO)c1ccc(Cn2cc(-c3ccc(CN4CCOCC4)cc3)nn2)cc1 [Example 9, N-Hydroxy-4-[4-(4-morpholin-4-ylmethyl-phenyl)-[1,2,3]triazol-1-ylmethyl]-benzamide] | 91 | 99 |  | > 100 | 0.22 ± 0.03 | 0.2 ± 0.037 | 
4 | 53.3 | 6.59 | 0.3 ± 0.04 | 0.52 ± 0.04 | 1 ± 0.27 | 2.65 ± 0.08 | 0.04 ± 0.016 | O=C(/C=C/c1ccc(Cn2cc(-c3ccc(CN4CCCC4)cc3)nn2)cc1)NO [Example 16, N-Hydroxy-3-{4-[4-(4-pyrrolidin-1-ylmethyl-phenyl)-[1,2,3]triazol-1-ylmethyl]-phenyl}-acrylamide] | 99 | 100 |  | > 100 | 0.09 ± 0.04 | 0.08 ± 0.04 | 0.4
8 | 28.5 | 4.09 | 1.9 ± 0.74 | 0.5 ± 0.24 | 0.7 ± 0.47 | 2 ± 1.1 | 1.7 ± 0.16 | CN(C)Cc1ccc(-c2cn(Cc3ccc(/C=C/C(=O)NO)cc3)nn2)cc1 [Example 21] | 98 | 100 |  | 42.6 | 0.11 ± 0.04 | 0.1 ± 0.01 | 
1 | 12.6 | 3.62 | 0.45 ± 0.28 | 0.4 ± 0.09 | 0.6 ± 0.38 | 1.5 ± 0.7 | 0.5 ± 1.2 | O=C(/C=C/c1cccc(Cn2cc(-c3ccc(CN4CCOCC4)cc3)nn2)c1)NO [Example 25, N-Hydroxy-3-{3-[4-(4-morpholin-4-ylmethyl-phenyl)-[1,2,3]triazol-1-ylmethyl]-phenyl}-acrylamide hydrochloride] | 100 | 101 |  | > 100 | 0.04 ± 0.01 | 0.04 ± 0.01 | 0.8

Compound | IC50 [1, 2] [nM] | IC50 (CYP 3A4) [µM] | EC50 (Caspase-3) [µM] | GI50 (NCI-H460; [6]) [µM] | GI50 (NCI-H23) [µM] | GI50 (Hela-229) [µM] | GI50 (786-O) [µM] | GI50 (SK-OV-3) [µM] | HDAC % Inhibition (1 μM) ([1]; Hela nuclear extract) [%] | HDAC % Inhibition (10 μM) ([1]; Hela nuclear extract) [%] | IC50 ([1]; Table 8, read-out: IC50 (nM) Hela nuclear extract) [nM] | IC50 (hERG) [µM] | GI50 (PA-1; [3]) [µM] | GI50 (PA-1; [4]) [µM] | GI50 (NCI-H460; [5]) [µM]
O=C(NO)c1ccc(Cn2cc(-c3ccc(CN4CCCC4)cc3)nn2)cc1 [Example 8, N-Hydroxy-4-[4-(4-pyrrolidin-1-ylmethyl-phenyl)-[1,2,3]triazol-1-ylmethyl]-benzamide] | 3 | 28.3 | 1.36 | 1.9 ± 0.75 | 0.9 ± 0.25 | 1.1 ± 0.23 | 4.1 ± 1.4 | 1.6 ± 0.1 | 95 | 100 | 3 | 19.9 | 0.15 ± 0.05 | 0.1 ± 0.01 | 2.1
